Marks after values point to notes of the source that are not given here.
Legend:
[1] = system: RAMOS human Burkitt's lymphoma cells; experiment: Human Non-Hodgkin RAMOS tumor in SCID mice, survival model; type: in vivo; details: for Median Survival (Days Post-Inoculation): treatment related deaths excluded; for Median % Increase in Lifespan (ILS): vs. vehicle control/Ref_mAb_33; for Survival, pairwise comparison (Holm-Sidak) vs. Group 3: Group 3 = Bendamustine (16 mg/kg), listed as Bendamustine = 13 mg/kg
Experimental: Cyclophosphamide (Baxter, Lot. No. 1A548C); Vehicle Control: 0.9% sodium chloride, 25 mg/ml mannitol, pH 6.5-6.8 (adjusted with 0.01 M NaOH); SCID Mice (University of Adelaide, Waite Campus, Urrbaraie, SA, Australia, Strain C.B.-17-Igh-1^b-Prkdc^scid); RAMOS human Burkitt's lymphoma cells (ATCC number CRL-1596); Ref_mAb_33_IgG_Xen (10 mg/mL in PBS, referred to as Ref_mAb_33); Bendamustine (Mundipharma, Lot No. 83889).
SCID mice were pre-treated with Cyclophosphamide (75 mg/kg, i.p., twice daily) for two days prior to RAMOS cell inoculation (Day −2 and −1). On the day of inoculation (Day 0), the mice were separated into seven groups of ten mice each, and inoculated with 1×10^6 RAMOS cells each intravenously into the tail vein. The planned dosing regimen for each group is shown in Table 5 and commenced on Day 3. The study duration was 60 days.
From the raw data shown in Table 6, both the median survival in days and median increase in lifespan were calculated. All treatment related deaths were excluded in the calculations.
Median % Increased Lifespan (ILS) is calculated as follows: […]
The classification of the MOR000208/Bendamustine combination therapy (combo) effect was evaluated by comparing the ILS of the combination with the added ILS of the respective monotherapies:
Synergy/Potentiation*: ILSCombo>ILSMOR00208 3 mg/kg+ILSBendamustine. Synergistic effects are classified as potentiation if at least one of the monotherapies has no effect. Additivity: ILSCombo=ILSMOR00208 3 mg/kg+ILSBendamustine. Antagonism: ILSCombo<ILSMOR00208 3 mg/kg+ILSBendamustine.
In addition to an analysis of the data for purposes of identifying synergy, the following statistical analysis was also completed. Statistical analyses were carried out using the median values. Any animal that died unexpectedly or was culled prior to Day 17 of the study in the Test Article treatment groups was excluded from survival analysis calculation. The death/culling of these animals was attributed to compound toxicity rather than disease progression as they occurred well in advance of the first deaths in the Vehicle Control animals. A survival curve was created using the product limit of Kaplan and Meier, and survival curves compared using the log-rank (Mantel-Cox) test. Where significant differences were found, All Pairwise Multiple Comparison (Holm-Sidak Test) was performed. Comparison was done between all groups. In addition the comparison of the following groups were summarised in separate figures for each test article: Vehicle Control/Ref_mAb (group 10) against Bendamustine groups (Groups 2, 3 and 4) and Vehicle Control/Ref_mAb (group 10) against Combination groups (Groups 5 and 6) or respective MOR00208 monotherapy group (group 1). A p value of less than 0.05 was considered significant.

[2] = system: MEC-1 cells; experiment: Cytotoxicity/ADCC cell killing of MEC-1 cells with PBMCs (FACS, propidium iodide); type: cell-based, human; details: for normalized specific killing: combination set to 1, Bendamustine 100 μg/ml, MOR00208 6.6 pM; for % dead cells: MOR00208 6.6 pm, BEN 100 μg/ml (48 h pre-incubation), E:T 30:1, 4 h, control RefMab33
Excerpt: MEC-1 cells: chronic B-cell leukemia cell line DSMZ #ACC497; Cell Medium: Iscove's Modified Dulbecco's Medium (IMDM) with GlutaMAX™, Invitrogen, Cat No.: 31980-048, 20% FCS; PBMCs: RPMI1640, with stabile Glutamine, PAN Biotech GmbH, Cat No.: P04-13500 supplemented with 10% FCS; Biocoll: Biochrome AG CAT No.: L6115 LOT No.: 1050T; Bendamustine: Mundipharma LOT No.: 88018; FCS: PAN CAT No.: 3302-P282403 LOT No.: P282403; and RefmAb33 (anti-RSV) with same Fc region as MOR00208.
The cytotoxicity of MOR00208 and bendamustine alone and in combination was tested in MEC-1 cells. BEN is an alkylating agent, therefore, functions via direct cytoxicity in MEC-1 cells. MOR00208 targets CD19 and additionally functions via ADCC in killing MEC-1 cells. For the following groups MEC-1 cell killing was measured: BEN at 100 μg/ml; MOR00208 at 6.6 pm and the combination of MOR00208 at 6.6 pm and BEN at 100 μg/ml. […] The following were used as controls: RefmAb33, or PBMCs alone. In both the BEN group and MOR00208+BEN combination group, MEC-1 cells were pre-incubated with BEN 48 hours prior to the ADCC assay measurements. The MEC-1 cells were stained using 1 mg/ml Calcein AM then counted and adjusted to 2×10^5/ml. The PBMCs were counted and adjusted to 6×10^6/ml. The cell killing assays were done as follows: using 96 well plates, a 100 μl cell suspension of MEC-1 cells was added per well, then 100 μl cell suspension of PBMCs was added to each well resulting in an E:T ratio of 30:1. The antibodies were diluted to 1 μg/ml in medium. Cells were centrifuged and re-suspended. To the target:effector cell-pellet, 100 μl antibody solution or according control solution was added. The mixture was incubated for 4 h in CO2-incubator at 37° C. The cell killing measurements were taken as follows: the incubated cell solution (˜100 μl) was transferred into FACS tubes and 200 μl FACS buffer (DPBS+3% FCS) and 0.5 μl PI stock solution was added to each tube. FACS-Calibur was used. Dead MEC-1 cells were stained with propidium iodide.
The values represent % dead cells. Each experiment represents PBMCs from different donors. The controls used for each experiment was RefMab33.
The values shown in Table 2 are calculated as follows: 1) from the raw data (% dead cells) shown in Table 1, the background (controls) were subtracted, resulting in the specific killing for each treatment group; then 2) the specific killing values were normalized by setting the combination of MOR00208+BEN to 1. The averages of Table 2 are depicted in FIG. 5.
[…] (CI) calculations were completed in order to determine synergy of the combination of the exemplified anti-CD19 antibody and bendamustine as compared to MOR00208 and BEN alone. Such calculations are described in Ting-Chao Chou, Theoretical Basis, Experimental Design, and Computerized Simulation of Synergism and Antagonism in Drug Combination Studies, Pharmacol Rev 58:621-681 (2006), which is incorporated by reference in its entirety and Chou T C, Talalay P, Quantitative analysis of dose-effect relationships: the combined effects of multiple drugs or enzyme inhibitors. Adv Enzyme Regul 22:27-55 (1984), which is incorporated by reference in its entirety. The methods of Chou-Talalay are carried out using the CI-isobol method.
The median-effect equation models of the effect of an inhibitor (such as a drug) as Fa/Fu=(D/D50)^m, where D is the dose, Fa and Fu is the fraction of the system affected and unaffected by the dose D (Fa+Fu=1); D50 is the dose producing the median effect (e.g. IC50, ED50, LD50). The constant m determines the shape of the dose-effect curve. We used Excel Fit software to carry out a linear regression calculation to estimate the parameters m and D50.
The effects of the combination on MEC-1 cells is measured % cell death as described above.

[3] = target: T1, Human CD19 (human, UniProt P15391 20-556); experiment: cell-based or functional assay
T1 sequence: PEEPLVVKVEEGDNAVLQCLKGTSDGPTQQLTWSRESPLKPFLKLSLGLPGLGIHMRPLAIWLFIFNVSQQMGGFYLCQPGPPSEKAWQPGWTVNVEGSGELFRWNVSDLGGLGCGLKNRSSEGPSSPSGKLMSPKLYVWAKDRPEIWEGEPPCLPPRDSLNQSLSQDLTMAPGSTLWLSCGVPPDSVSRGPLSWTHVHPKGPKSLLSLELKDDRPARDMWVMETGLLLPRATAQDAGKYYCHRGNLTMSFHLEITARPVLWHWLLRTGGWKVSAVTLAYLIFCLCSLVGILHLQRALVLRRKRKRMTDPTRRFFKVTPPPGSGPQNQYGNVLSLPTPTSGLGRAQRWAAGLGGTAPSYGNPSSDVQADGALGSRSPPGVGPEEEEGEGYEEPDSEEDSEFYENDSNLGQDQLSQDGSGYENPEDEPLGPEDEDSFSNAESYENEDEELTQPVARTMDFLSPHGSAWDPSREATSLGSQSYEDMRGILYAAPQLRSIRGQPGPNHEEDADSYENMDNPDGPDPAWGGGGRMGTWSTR

Row | Molecule | Median Survival (Days Post-Inoculation) ([1]; 13 mg/kg) | Median % Increase in Lifespan (ILS) ([1]; 13 mg/kg) [%] | Median Survival (Days Post-Inoculation) ([1]; 16 mg/kg) | Median % Increase in Lifespan (ILS) ([1]; 16 mg/kg) [%] | Survival, pairwise comparison (Holm-Sidak) vs. Group 3 ([1]; Table 8) | Survival, pairwise comparison (Holm-Sidak) vs. Group 3 ([1]; untitled repeat of Table 8) | normalized specific killing ([2]; Average of experiments 1-3) | % dead cells ([2]; Experiment 1 (PBMC donor)) [%] | normalized specific killing ([2]; Experiment 1, background subtracted) | % dead cells ([2]; Experiment 2 (PBMC donor)) [%] | normalized specific killing ([2]; Experiment 2, background subtracted) | % dead cells ([2]; Experiment 3 (PBMC donor)) [%] | normalized specific killing ([2]; Experiment 3, background subtracted) | EC50 ([2]; Homo sapiens, MEC1, read-out: EC50 (MEC-1 cell killing)) [µg/mL] | Bonferroni's Multiple Comparison Test Mean Diff. ([2]; normalized specific killing, monotherapy vs. BEN + MOR00208 combination) | EC50 of MEC-1 cell killing (ADCC with human PBMCs) [3] [pM]
1 | Cn1c(CCCC(=O)O)nc2cc(N(CCCl)CCCl)ccc21 [Bendamustine, reference compound] | 24^b Days Post-Inoculation | −5.88 | 24^c Days Post-Inoculation | −5.88 | No (No: There is no statistically significant difference (p ≥ 0.05).) | No (No: There is no statistically significant difference (p ≥ 0.05).) | 0.8 | 83.6 | 0.85 | 53.3 | 0.75 | 75.6 | 0.85 | ~100 | −0.1834 | –
2 | MOR00208 (antibody, human IgG1, kappa, V domains shown) VH: EVQLVESGGGLVKPGGSLKLSCAASGYTFTSYVMHWVRQAPGKGLEWIGYINPYNDGTKYNEKFQGRVTISSDKSISTAYMELSSLRSEDTAMYYCARGTYYYGTRVFDYWGQGTLVTVSS VL: DIVMTQSPATLSLSPGERATLSCRSSKSLQNVNGNTYLYWFQQKPGQSPQLLIYRMSNLNSGVPDRFSGSGSGTEFTLTISSLEPEDFAVYYCMQHLEYPITFGAGTKLEIKR | – | – | – | – | – | – | – | – | – | – | – | – | – | – | – | ~6.6

Source: patent US20240366756A1, “COMBINATIONS AND USES THEREOF” (Incyte Corporation, priority 2011, published 2024)
